Test results published in the NIST ThermoML archive (doi:10.1016/j.fluid.2013.01.002).
Numbers after ± are expanded uncertainties. One block for each molecule: values may come before it.

Assays:
[1] = 298.15 K; 101.33 kPa; Liquid; Vibrating tube method
[2] = refractive index (Na D-line) (dimensionless); settings: 298.15 K; 101.33 kPa; Liquid; Standard Abbe refractometry
[3] = xn = mol fraction of the nth substance listed; settings: 298.15 K, 101 kPa, Liquid, Vibrating tube method
[4] = refractive index (Na D-line) (dimensionless); xn = mol fraction of the nth substance listed; settings: 298.15 K, 101 kPa, Liquid, Standard Abbe refractometry

Compound: CCCCCCCCN(CCCCCCCC)CCCCCCCC [trioctylamine]
- mass density [1]: 807.9 ± 0.11 kg/m3
- refractive index [2]: 1.4476 ± 0.0004

Compound: CCCCCCCCN(CCCCCCCC)CCCCCCCC [trioctylamine] + CCCCCCCCCCCC
- mass density ([3]; x1 = 0.0501): 751.32 ± 0.13 kg/m3
- mass density ([3]; x1 = 0.1): 756.64 ± 0.13 kg/m3
- mass density ([3]; x1 = 0.1998): 765.98 ± 0.13 kg/m3
- mass density ([3]; x1 = 0.3): 773.95 ± 0.12 kg/m3
- mass density ([3]; x1 = 0.4): 780.79 ± 0.12 kg/m3
- mass density ([3]; x1 = 0.5001): 786.75 ± 0.12 kg/m3
- mass density ([3]; x1 = 0.6023): 792.12 ± 0.12 kg/m3
- mass density ([3]; x1 = 0.7001): 796.7 ± 0.11 kg/m3
- mass density ([3]; x1 = 0.8025): 801 ± 0.11 kg/m3
- mass density ([3]; x1 = 0.9002): 804.65 ± 0.11 kg/m3
- mass density ([3]; x1 = 0.9499): 806.35 ± 0.11 kg/m3
- refractive index ([4]; x1 = 0.0501): 1.4222 ± 0.0004
- refractive index ([4]; x1 = 0.1): 1.4249 ± 0.0004
- refractive index ([4]; x1 = 0.1998): 1.4287 ± 0.0004
- refractive index ([4]; x1 = 0.3): 1.4323 ± 0.0004
- refractive index ([4]; x1 = 0.4): 1.4354 ± 0.0004
- refractive index ([4]; x1 = 0.5001): 1.4381 ± 0.0004
- refractive index ([4]; x1 = 0.6023): 1.4403 ± 0.0004
- refractive index ([4]; x1 = 0.7001): 1.4426 ± 0.0004
- refractive index ([4]; x1 = 0.8025): 1.4444 ± 0.0004
- refractive index ([4]; x1 = 0.9002): 1.4461 ± 0.0004
- refractive index ([4]; x1 = 0.9499): 1.4468 ± 0.0004

Compound: CCCCCCCCCCC [undecane]
- mass density [1]: 736.73 ± 0.14 kg/m3
- refractive index [2]: 1.415 ± 0.0004

Compound: CCCCCCCCCCCCO [dodecan-1-ol]
- mass density [1]: 830.37 ± 0.1 kg/m3
- refractive index [2]: 1.4407 ± 0.0004

Compound: CCCCCCCCCCCC [dodecane]
- mass density [1]: 745.52 ± 0.13 kg/m3
- refractive index [2]: 1.4195 ± 0.0004

Further lines, results first:

- mass density ([3]; x1 = 0.0498): 828.8 ± 0.1 kg/m3
- mass density ([3]; x1 = 0.1011): 827.31 ± 0.1 kg/m3
- mass density ([3]; x1 = 0.2014): 824.49 ± 0.1 kg/m3
- mass density ([3]; x1 = 0.3012): 821.97 ± 0.1 kg/m3
- mass density ([3]; x1 = 0.4001): 819.63 ± 0.1 kg/m3
- mass density ([3]; x1 = 0.5): 817.37 ± 0.11 kg/m3
- mass density ([3]; x1 = 0.6005): 815.19 ± 0.11 kg/m3
- mass density ([3]; x1 = 0.6995): 813.14 ± 0.11 kg/m3
- mass density ([3]; x1 = 0.799): 811.21 ± 0.11 kg/m3
- mass density ([3]; x1 = 0.8999): 809.43 ± 0.11 kg/m3
- mass density ([3]; x1 = 0.9504): 808.63 ± 0.11 kg/m3
- refractive index ([4]; x1 = 0.0498): 1.4416 ± 0.0004
- refractive index ([4]; x1 = 0.1011): 1.4424 ± 0.0004
- refractive index ([4]; x1 = 0.2014): 1.4437 ± 0.0004
- refractive index ([4]; x1 = 0.3012): 1.4447 ± 0.0004
- refractive index ([4]; x1 = 0.4001): 1.4455 ± 0.0004
- refractive index ([4]; x1 = 0.5): 1.4461 ± 0.0004
- refractive index ([4]; x1 = 0.6005): 1.4465 ± 0.0004
- refractive index ([4]; x1 = 0.6995): 1.4469 ± 0.0004
- refractive index ([4]; x1 = 0.799): 1.4473 ± 0.0004
- refractive index ([4]; x1 = 0.8999): 1.4475 ± 0.0004
- refractive index ([4]; x1 = 0.9504): 1.4476 ± 0.0004
Compound: CCCCCCCCN(CCCCCCCC)CCCCCCCC [trioctylamine] + CCCCCCCCCCCCO

- mass density ([3]; x1 = 0.05): 743.91 ± 0.14 kg/m3
- mass density ([3]; x1 = 0.1): 750.33 ± 0.13 kg/m3
- mass density ([3]; x1 = 0.2017): 761.55 ± 0.13 kg/m3
- mass density ([3]; x1 = 0.3001): 770.56 ± 0.12 kg/m3
- mass density ([3]; x1 = 0.4002): 778.34 ± 0.12 kg/m3
- mass density ([3]; x1 = 0.4997): 785.01 ± 0.12 kg/m3
- mass density ([3]; x1 = 0.6003): 790.89 ± 0.12 kg/m3
- mass density ([3]; x1 = 0.6989): 795.96 ± 0.11 kg/m3
- mass density ([3]; x1 = 0.7996): 800.52 ± 0.11 kg/m3
- mass density ([3]; x1 = 0.9003): 804.51 ± 0.11 kg/m3
- mass density ([3]; x1 = 0.9497): 806.25 ± 0.11 kg/m3
- refractive index ([4]; x1 = 0.05): 1.4176 ± 0.0004
- refractive index ([4]; x1 = 0.1): 1.4199 ± 0.0004
- refractive index ([4]; x1 = 0.2017): 1.4243 ± 0.0004
- refractive index ([4]; x1 = 0.3001): 1.4285 ± 0.0004
- refractive index ([4]; x1 = 0.4002): 1.4319 ± 0.0004
- refractive index ([4]; x1 = 0.4997): 1.4351 ± 0.0004
- refractive index ([4]; x1 = 0.6003): 1.438 ± 0.0004
- refractive index ([4]; x1 = 0.6989): 1.4407 ± 0.0004
- refractive index ([4]; x1 = 0.7996): 1.4434 ± 0.0004
- refractive index ([4]; x1 = 0.9003): 1.4455 ± 0.0004
- refractive index ([4]; x1 = 0.9497): 1.4466 ± 0.0004
Compound: CCCCCCCCN(CCCCCCCC)CCCCCCCC [trioctylamine] + CCCCCCCCCCC
